Read-outs that look alike come from different tables or passages of the source.
Conditions: storage 40° C., 75% relative humidity
Method: The amorphous solid of a reduced glutathione-sodium salt obtained in (1) of Example 1, and the final crystal of a reduced glutathione-sodium salt obtained in Example 1 were compared for hygroscopicity under the following conditions.
Storage conditions: 40° C., 75% relative humidity (adjusted with saturated brine)
Measurement conditions: About 0.3 g of a sample was weighed with a precision balance, and charged into a plastic container. After being stored under the foregoing storage conditions, the sample was weighed, and the percentage of weight change was calculated.
The measured sample weight at each time point is relative to the 100% initial weight at the start of testing. In table 5, the symbol “-” means no measurement.

For `N[C@@H](CCC(=O)N[C@@H](CS)C(=O)NCC(=O)O)C(=O)[O-].[Na+]` [Amorphous, reduced glutathione-sodium salt], the “weight (%) relative to 100% initial weight” value (elapsed time 0 h) was 100%, the “weight (%) relative to 100% initial weight” value (elapsed time 0.25 h) was 100.7% and the “weight (%) relative to 100% initial weight” value (elapsed time 2 h) was 104.1%. The “weight (%) relative to 100% initial weight” value (elapsed time 4 h) was 106.2%, the “weight (%) relative to 100% initial weight” value (elapsed time 10 h) was 110.2% and the “weight (%) relative to 100% initial weight” value (elapsed time 20 h) was 117.3%. The “weight (%) relative to 100% initial weight” value (elapsed time 48 h) was 125.8%.

In the case of `N[C@@H](CCC(=O)N[C@@H](CS)C(=O)NCC(=O)O)C(=O)[O-].[Na+]` [Crystal, reduced glutathione-sodium salt], the “weight (%) relative to 100% initial weight” value (elapsed time 0 h) is reported as 100%, the “weight (%) relative to 100% initial weight” value (elapsed time 2 h) is reported as 100.7% and the “weight (%) relative to 100% initial weight” value (elapsed time 10 h) is reported as 101.9%. For the same molecule, the “weight (%) relative to 100% initial weight” value (elapsed time 20 h) was 102%, the “weight (%) relative to 100% initial weight” value (elapsed time 48 h) was 102.9% and the “hygroscopicity / preservation stability compared with the amorphous solid” value (up to 48 h) was “less likely to absorb moisture than the amorphous solid”.

— patent US10640532B2, “Crystal of reduced glutathione” (University Public Corporation Osaka, priority 2015, dated 2020)
